According to US20070072242A1, “Immunoassay method and kit to leucomalachite green and malachite green” (Randox Laboratories Limited, priority 2005, published 2007):

Assays:
[1] = test system: Ig fraction of the antiserum raised to immunogen II (hapten A-BTG); experiment: competitive ELISA microtiter plate assay, antiserum to immunogen II with Conjugate II (hapten C-HRP); assay type: binding, sheep; conditions: for % CR (percentage cross-reactivity based on specificity to leucomalachite green) / IC50 (standard concentration which produces 50% B/B0): Conjugate II (hapten C-HRP); for IC50 (standard concentration which produces 50% B/B0): 25° C. 1 hour; for % B/B0 / A450: Conjugate II
Description: (§1) An aqueous solution of immunogen II was formulated with Freund's Complete Adjuvant (FCA) to form an emulsion consisting of 2 mg/ml immunogen in 50% (v/v) FCA. Three sheep were immunised with this emulsion (1° immunisation), 0.25 ml being intramuscularly injected at each of four sites in the rump of each animal. Subsequent immunizations (boosts) contained 1 mg/ml immunogen. All boosts were emulsified in 50% (v/v) Freund's Incomplete Adjuvant (FIA) and were administered in the same manner as the 1° immunisation, at monthly intervals for 1 year. Blood sampling took place 7 to 14 days after each boost. Each sample was processed to produce antiserum, which was further purified by caprylic acid and ammonium sulfate precipitation to yield an immunoglobulin (Ig) fraction. The Ig fraction was evaluated by competitive ELISA microtiter plate assay, as described in Example 12 below.
The wells of an enhanced binding 96 well polystyrene microtiter plate were coated with the Ig fraction of the antiserum raised to immunogen II (hapten A-BTG) (Example 8), diluted in 10 mM Tris, pH8.5 (125 μl/well). The appropriate antibody coating dilution was determined using standard ELISA checkerboard techniques. The plate was incubated for 2 hours at 37° C., washed 4 times with Tris buffered saline containing Tween 20 (TBST) and tapped dry. […]
75 μl of conjugate C (hapten C-HRP) (Example 10), diluted in Tris buffer (pH 7.2) containing EDTA, D-mannitol, sucrose, thimerosal and BSA, was added to each of the wells, as shown in FIG. 8. The appropriate dilution of conjugate was also determined using standard ELISA checkerboard techniques.
The plate was incubated at 25° C. for 1 hour. Excess unbound conjugate was removed by washing 6 times over a 10-15 minute period with TBST.
125 μl of tetramethylbenzidine (TMB) substrate solution was added to each well of the plate that was then incubated for 20 minutes in the dark at room temperature. The reaction was terminated by addition of 100 ul 0.2 M H2SO4 to each well. The absorbance was then measured at 450 nm using a microtiter plate reader.

[2] = test system: Bioo Kit antibodies; conditions: information provided by Bioo Scientific; kit designed to detect malachite green only; cited from earlier work
[3] = test system: Ig fraction of the antiserum raised to immunogen II (hapten A-BTG); experiment: competitive ELISA microtiter plate assay, antiserum to immunogen II with conjugate I (hapten A-HRP); assay type: binding, sheep; conditions: for % CR (percentage cross-reactivity based on specificity to leucomalachite green) / IC50 (standard concentration which produces 50% B/B0): Conjugate I (hapten A-HRP); for IC50 (standard concentration which produces 50% B/B0): 37° C. 2 hours; for % B/B0 / A450: Conjugate I
Description: as §1
The wells of an enhanced binding 96 well polystyrene microtiter plate were coated with the Ig fraction of the antiserum raised to immunogen II (hapten A-BTG) (Example 8), diluted in 10 mM Tris, pH8.5 (125 μl/well). The appropriate antibody coating dilution was determined using standard ELISA checkerboard techniques. The plate was incubated for 2 hours at 37° C., washed 4 times with Tris buffered saline containing Tween 20 (TBST) and tapped dry. Standard solutions of leucomalachite green and malachite green were prepared in TBST at 0, 5, 10, 50, 100, 250, 500 and 1000 ng/ml, and 50 μl of each was added to the appropriate wells (FIG. 8).
75 μl of conjugate I (hapten A-HRP) (Example 9), diluted in Tris buffer (pH 7.2) containing EDTA, D-mannitol, sucrose, thimerosal and BSA, was added to each of the wells, as shown in FIG. 8. The appropriate dilution of conjugate was also determined using standard ELISA checkerboard techniques. The plate was incubated at 37° C. for 2 hours. Excess unbound conjugate was removed by washing 6 times over a 10 minute period with TBST. 125 μl of tetramethylbenzidine (TMB) substrate solution was added to each well of the plate that was then incubated for 15 to 20 minutes in the dark at room temperature. The reaction was terminated by addition of 125 μl 0.2M H2SO4 to each well. The absorbance was then measured at 450 nm using a microtiter plate reader.

[4] = standard concentration 0.5 ng/ml
[5] = standard concentration 10 ng/ml
[6] = standard concentration 50 ng/ml
[7] = standard concentration 100 ng/ml
[8] = standard concentration 250 ng/ml
[9] = standard concentration 500 ng/ml
[10] = standard concentration 1000 ng/ml

SMILES	% CR (percentage cross-reactivity based on specificity to leucomalachite green) [1]	IC50 (standard concentration which produces 50% B/B0) [1]	% B/B0 [1, 4]	A450 [1, 4]	% B/B0 ([1]; standard concentration 1 ng/ml)	A450 ([1]; standard concentration 1 ng/ml)	% B/B0 ([1]; standard concentration 5 ng/ml)	A450 ([1]; standard concentration 5 ng/ml)	% B/B0 [1, 5]	A450 [1, 5]	% B/B0 [1, 6]	A450 [1, 6]	% CR (percentage cross-reactivity based on specificity to leucomalachite green) [3]	IC50 (standard concentration which produces 50% B/B0) [3]	% B/B0 ([3]; standard concentration 5 ng/ml)	A450 ([3]; standard concentration 5 ng/ml)	% B/B0 [3, 5]	A450 [3, 5]	% B/B0 [3, 6]	A450 [3, 6]	also measured
CN(C)c1ccc(C(c2ccccc2)c2ccc(N(C)C)cc2)cc1 [Leucomalachite Green, leucomalachite green]	100%	0.00374 µg/mL	90%	1.550	77%	1.323	45%	0.772	31%	0.538	11%	0.184	100%	0.02733 µg/mL	76.0%	1.378	67.5%	1.225	42.0%	0.762	cross-reactivity [2]: 1%; % B/B0 [3, 7]: 30.2%; A450 [3, 7]: 0.547; % B/B0 [3, 8]: 20.2%; A450 [3, 8]: 0.366; % B/B0 [3, 9]: 13.6%; A450 [3, 9]: 0.247; % B/B0 [3, 10]: 9.8%; A450 [3, 10]: 0.178
CN(C)c1ccc(C(=C2C=CC(=[N+](C)C)C=C2)c2ccccc2)cc1 [Malachite Green, malachite green]	26.8%	0.013962 µg/mL	95%	1.611	89%	1.504	67%	1.137	57%	0.967	29%	0.497	26.43%	0.10339 µg/mL	85.2%	1.440	82.3%	1.392	63.6%	1.075	% B/B0 [1, 7]: 20%; A450 [1, 7]: 0.342; % B/B0 [1, 8]: 13%; A450 [1, 8]: 0.227; % B/B0 [1, 9]: 11%; A450 [1, 9]: 0.184; % B/B0 [1, 10]: 7%; A450 [1, 10]: 0.113; % B/B0 [3, 7]: 51.4%; A450 [3, 7]: 0.869; % B/B0 [3, 8]: 39.3%; A450 [3, 8]: 0.664; % B/B0 [3, 9]: 30.8%; A450 [3, 9]: 0.520; % B/B0 [3, 10]: 24.6%; A450 [3, 10]: 0.416
